Experimental data as given in patent publication US20210299204A1 (priority 2020, published 2021).

Assay: Adverse outcome after a Depo-Provera shot for endometrial treatment
Details: inventor themself, one shot, 1987; attributed to the preservative in the drug

With CC(=O)O[C@]1(C(C)=O)CC[C@H]2[C@@H]3C[C@H](C)C4=CC(=O)CC[C@]4(C)[C@H]3CC[C@@]21C [Depo-Provera] as the compound, how does the “adverse result of treatment” value read?
Its value is “retinal atrophy”.
